The results in this text go back to ChEMBL document CHEMBL2029311, “Design, synthesis, and evaluation of a novel class of 2,3-disubstituted-tetrahydro-β-carboline derivatives” (2012).

What is called inhibition in vivo is the share of the control response that was lost under treatment.

For the first experiment, the system named is Mus musculus. As to the kind of experiment: Antiinflammatory activity in ICR mouse assessed as inhibition of xylene-induced ear edema at 100 mg/kg, po administered 30 mins before xylene challenge relative to control. It is filed as functional.
`CC(=O)Oc1ccccc1C(=O)O` [ASPIRIN]: the inhibition in vivo at 100 mg/kg worked out at 89.5%.

A further experiment concerns Mus musculus. In words: Antiinflammatory activity in ICR mouse assessed as inhibition of xylene-induced ear edema at 10 umol/kg, po administered 30 mins before xylene challenge relative to control. It is filed as functional.
Consider `CC(=O)OC[C@H]1O[C@@H](OC(C)=O)[C@H](NC(=O)[C@@H]2Cc3c([nH]c4ccccc34)CN2C(=O)OC(C)(C)C)[C@@H](OC(C)=O)[C@@H]1OC(C)=O`, for which the inhibition in vivo at 10 µmol/kg is 71.2%. For `CC(=O)OC[C@H]1O[C@@H](OC(C)=O)[C@H](NC(=O)[C@@H]2Cc3c([nH]c4ccccc34)CN2C(=O)[C@H](C)NC(=O)OC(C)(C)C)[C@@H](OC(C)=O)[C@@H]1OC(C)=O`, the inhibition in vivo at 10 µmol/kg was found to be 82%.

On to `CC(=O)OC[C@H]1O[C@@H](OC(C)=O)[C@H](NC(=O)[C@@H]2Cc3c([nH]c4ccccc34)CN2C(=O)CNC(=O)OC(C)(C)C)[C@@H](OC(C)=O)[C@@H]1OC(C)=O`, for which the inhibition in vivo at 10 µmol/kg came out at 58.6%. On the same count and under the same terms, next, `C[C@H](NC(=O)OC(C)(C)C)C(=O)N1Cc2[nH]c3ccccc3c2C[C@H]1C(=O)N[C@H]1C(O)O[C@H](CO)[C@@H](O)[C@@H]1O` (mixture of isomers): 51.9%; `C[C@H](N)C(=O)N1Cc2[nH]c3ccccc3c2C[C@H]1C(=O)N[C@H]1C(O)O[C@H](CO)[C@@H](O)[C@@H]1O` (mixture of isomers): 66%.
